Read-outs that look alike come from different tables or passages of the source.
Tests used:
[1] = target: T1, S31N mutant M2 proton channel (full length AM2 protein) (Influenza A virus, UniProt P0DOF5, S31N); format: biochemical; conditions: 100 µM
[2] = target: T1, S31N mutant M2 proton channel (full length AM2 protein); conditions: cited from earlier work
A/WSN/33-N31S (WT) virus = format: cell-based

Row | Compound | S31N % inhibition (TEVC) [1] | further results
1 | NC12CC3CC(CC(C3)C1)C2 [Compound 1, amantadine] | 35 ± 2/ % | 
2 | COC(=O)[C@H](Cc1cnc[nH]1)NCC12CC3CC(CC(C3)C1)C2 [Compound 3] | 0% | 
3 | CC(N)C12CC3CC(CC(C3)C1)C2 (stereo not shown) [Compound 2, rimantadine] | 13% | 
4 | pinanamine |  | S31N % inhibition (TEVC) [2]: 0%
5 | c1ccc(CNC23CC4CC(CC(C4)C2)C3)nc1 [Compound 33] | 0% | 
6 | Oc1ccc(CNC23CC4CC(CC(C4)C2)C3)c(O)c1 [Compound 44, 4-(adamantan-1-ylaminomethyl)-benzene-1,3-diol] |  | inhibition of plaque formation, WT virus (A/WSN/33-N31S (WT) virus): complete inhibition
7 | C[C@@H]1[C@@H](/N=C/c2ccc(O)cc2)C[C@H]2C[C@@H]1C2(C)C [Compound 4] | 0% | 

— PMC4036227 (Journal of medicinal chemistry, 2013)
